Structures are written as SMILES. Square brackets hold non-standard residues; d marks the D form. Peptide text beside a SMILES is read from it. Tle = CC(C)(C)[C@H](N)C(=O)O

In one series the target is Amyloid-beta precursor protein (Homo sapiens) (UniProt P05067). Put plainly: Inhibition of amyloid beta (1 to 42) (unknown origin) aggregation assessed as relative fluorescence unit at 2 uM measured after 24 hrs by thioflavin-T fluorescence assay (reference value: 100%).
Amyloid-beta precursor protein (Homo sapiens), sequence (P05067 whole entry): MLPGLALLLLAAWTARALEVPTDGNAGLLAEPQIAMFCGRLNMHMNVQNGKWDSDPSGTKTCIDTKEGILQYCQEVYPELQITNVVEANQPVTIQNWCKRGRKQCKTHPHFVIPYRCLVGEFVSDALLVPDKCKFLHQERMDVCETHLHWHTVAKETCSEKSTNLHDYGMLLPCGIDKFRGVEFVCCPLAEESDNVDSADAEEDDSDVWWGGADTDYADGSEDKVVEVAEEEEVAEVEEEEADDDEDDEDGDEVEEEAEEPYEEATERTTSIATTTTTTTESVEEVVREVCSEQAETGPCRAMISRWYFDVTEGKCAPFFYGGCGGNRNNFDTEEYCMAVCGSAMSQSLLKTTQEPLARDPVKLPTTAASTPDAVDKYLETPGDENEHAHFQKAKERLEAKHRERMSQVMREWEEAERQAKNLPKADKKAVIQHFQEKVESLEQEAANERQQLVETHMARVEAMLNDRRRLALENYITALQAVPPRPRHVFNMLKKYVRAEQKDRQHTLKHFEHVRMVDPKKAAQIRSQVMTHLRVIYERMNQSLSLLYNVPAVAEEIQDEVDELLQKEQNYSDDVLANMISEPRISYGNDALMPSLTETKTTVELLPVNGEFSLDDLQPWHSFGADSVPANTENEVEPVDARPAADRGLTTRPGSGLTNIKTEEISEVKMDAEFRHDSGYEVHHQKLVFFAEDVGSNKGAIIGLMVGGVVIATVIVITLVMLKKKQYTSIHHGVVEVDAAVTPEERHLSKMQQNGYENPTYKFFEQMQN
Conditions: not given
For `CC[C@H](C)[C@H](NC(=O)[C@@H](NC(=O)[C@@H](N)C(C)(C)C)C(C)(C)C)C(=O)N[C@@H](C)C(=O)O` (H-[Tle][Tle]IA-OH), the RFU turned out to be 51.2%.

The target is the same in a further series. Put plainly: Inhibition of amyloid beta (1 to 42) (unknown origin) assessed as reduction in peptide aggregation at 1 uM measured after 24 hrs by thioflavin-T fluorescence assay relative to control.
Conditions: not given
As usually defined, the inhibition is the change of the read-out against control, counted positive when it falls. Take `CC[C@H](C)[C@H](NC(=O)[C@@H](NC(=O)[C@@H](N)C(C)(C)C)C(C)(C)C)C(=O)N[C@@H](C)C(=O)O` (H-[Tle][Tle]IA-OH): the inhibition is 51.8%.

The subject of another series is PC-12. Briefly: Cytotoxicity against rat PC-12 cells assessed as reduction in cell viability at 20 uM measured after 6 hrs by MTT assay. Format: cell-based. The note with it: pc-12, 6 h.
For `CC[C@H](C)[C@H](NC(=O)[C@@H](NC(=O)[C@@H](N)C(C)(C)C)C(C)(C)C)C(=O)N[C@@H](C)C(=O)O` (H-[Tle][Tle]IA-OH), the Activity result is “Non-Toxic”.

The target in another series is Amyloid-beta precursor protein (Homo sapiens) (UniProt P05067). Briefly: Inhibition of amyloid beta (1 to 42) (unknown origin) assessed as reduction in peptide aggregation at 4 uM measured after 24 hrs by thioflavin-T fluorescence assay relative to control.
Conditions: not given
Consider `CC[C@H](C)[C@H](NC(=O)[C@@H](NC(=O)[C@@H](N)C(C)(C)C)C(C)(C)C)C(=O)N[C@@H](C)C(=O)O` (H-[Tle][Tle]IA-OH), for which the inhibition came out at 97.4%.

A further series has the same target. Put plainly: Inhibition of amyloid beta (1 to 42) (unknown origin) assessed as reduction in peptide aggregation at 0.5 uM measured after 24 hrs by thioflavin-T fluorescence assay relative to control.
Conditions: not given
For the molecule `CC[C@H](C)[C@H](NC(=O)[C@@H](NC(=O)[C@@H](N)C(C)(C)C)C(C)(C)C)C(=O)N[C@@H](C)C(=O)O` (H-[Tle][Tle]IA-OH), the inhibition was 41.3%.

Another series shares this target. Put plainly: Inhibition of amyloid beta (1 to 42) (unknown origin) assessed as reduction in peptide aggregation at 2 uM measured after 24 hrs by thioflavin-T fluorescence assay relative to control.
Conditions: not given
`CC[C@H](C)[C@H](NC(=O)[C@@H](NC(=O)[C@@H](N)C(C)(C)C)C(C)(C)C)C(=O)N[C@@H](C)C(=O)O` (H-[Tle][Tle]IA-OH): the inhibition was found to be 100%.

The subject of the next series is PC-12. Put plainly: Neuroprotective activity against amyloid beta 42-induced toxicity in rat PC-12 cells assessed as cell viability at 4 uM measured after 6 hrs by MTT assay (reference value: 74.05%). The class given is functional. The conditions noted are these: read-out: Activity. (In general: Formazan colour is commonly taken as a measure of viable cells.)
Turning to `CC[C@H](C)[C@H](NC(=O)[C@@H](NC(=O)[C@@H](N)C(C)(C)C)C(C)(C)C)C(=O)N[C@@H](C)C(=O)O` (H-[Tle][Tle]IA-OH), the viability at 4 µM stood at 100%.

The target of a further series is Amyloid-beta precursor protein (Homo sapiens) (UniProt P05067). Put plainly: Inhibition of amyloid beta (1 to 42) (unknown origin) assessed as reduction in peptide aggregation at 0.1 uM measured after 24 hrs by thioflavin-T fluorescence assay relative to control.
Conditions: not given
For `CC[C@H](C)[C@H](NC(=O)[C@@H](NC(=O)[C@@H](N)C(C)(C)C)C(C)(C)C)C(=O)N[C@@H](C)C(=O)O` (H-[Tle][Tle]IA-OH), the inhibition turned out to be 34.4%.

The test system of a further series is Cortical neurone. Put plainly: Cytotoxicity against rat primary cortical neuron assessed as reduction in cell viability at 20 uM measured after 6 hrs by MTT assay. Format: cell-based.
Conditions: not given
With `CC[C@H](C)[C@H](NC(=O)[C@@H](NC(=O)[C@@H](N)C(C)(C)C)C(C)(C)C)C(=O)N[C@@H](C)C(=O)O` (H-[Tle][Tle]IA-OH), the Activity entry is recorded as “Non-Toxic”.

A further series concerns PC-12. Briefly: Neuroprotective activity against amyloid beta 42-induced toxicity in rat PC-12 cells assessed as cell viability at 0.1 uM measured after 6 hrs by MTT assay (reference value: 73.8%). Format: functional. The note with it: read-out: Activity.
With `CC[C@H](C)[C@H](NC(=O)[C@@H](NC(=O)[C@@H](N)C(C)(C)C)C(C)(C)C)C(=O)N[C@@H](C)C(=O)O` (H-[Tle][Tle]IA-OH), the viability at 0.1 µM was found to be 91.2%.

The next series has as its system PC-12. Briefly: Neuroprotective activity against amyloid beta 42-induced toxicity in rat PC-12 cells assessed as cell viability at 1 uM measured after 6 hrs by MTT assay (reference value: 73.8%). The class given is functional. The note with it: read-out: Activity.
On to `CC[C@H](C)[C@H](NC(=O)[C@@H](NC(=O)[C@@H](N)C(C)(C)C)C(C)(C)C)C(=O)N[C@@H](C)C(=O)O` (H-[Tle][Tle]IA-OH), for which the viability at 1 µM worked out at 97.6%.

The next series has as its system PC-12. Briefly: Neuroprotective activity against amyloid beta 42-induced toxicity in rat PC-12 cells assessed as cell viability at 10 uM measured after 6 hrs by MTT assay (reference value: 74.05%). Format: functional. The conditions noted are these: read-out: Activity.
For the molecule `CC[C@H](C)[C@H](NC(=O)[C@@H](NC(=O)[C@@H](N)C(C)(C)C)C(C)(C)C)C(=O)N[C@@H](C)C(=O)O` (H-[Tle][Tle]IA-OH), the viability at 10 µM was found to be 100%.

For a further series, the target named is Amyloid-beta precursor protein (Homo sapiens) (UniProt P05067). Put plainly: Inhibition of amyloid beta (1 to 42) (unknown origin) assessed as reduction in peptide aggregation at 10 uM measured after 24 hrs by thioflavin-T fluorescence assay relative to control.
Conditions: not given
Regarding `CC[C@H](C)[C@H](NC(=O)[C@@H](NC(=O)[C@@H](N)C(C)(C)C)C(C)(C)C)C(=O)N[C@@H](C)C(=O)O` (H-[Tle][Tle]IA-OH), the inhibition was determined as 95.3%.

The next series has the same target. Put plainly: Inhibition of amyloid beta (1 to 42) (unknown origin) aggregation assessed as relative fluorescence unit at 10 uM measured after 24 hrs by thioflavin-T fluorescence assay (reference value: 100%).
Conditions: not given
With `CC[C@H](C)[C@H](NC(=O)[C@@H](NC(=O)[C@@H](N)C(C)(C)C)C(C)(C)C)C(=O)N[C@@H](C)C(=O)O` (H-[Tle][Tle]IA-OH), the RFU stood at 55.5%.

Another series has as its system PC-12. Put plainly: Neuroprotective activity against amyloid beta 42-induced toxicity in rat PC-12 cells assessed as cell viability at 0.5 uM measured after 6 hrs by MTT assay (reference value: 73.8%). The class given is functional. The conditions noted are these: read-out: Activity.
With `CC[C@H](C)[C@H](NC(=O)[C@@H](NC(=O)[C@@H](N)C(C)(C)C)C(C)(C)C)C(=O)N[C@@H](C)C(=O)O` (H-[Tle][Tle]IA-OH), the viability at 0.5 µM was 94.5%.

In the next series the target is Amyloid-beta precursor protein (Homo sapiens) (UniProt P05067). Briefly: Inhibition of amyloid beta (1 to 42) (unknown origin) aggregation assessed as relative fluorescence unit at 4 uM measured after 24 hrs by thioflavin-T fluorescence assay (reference value: 100%).
Conditions: not given
In the case of `CC[C@H](C)[C@H](NC(=O)[C@@H](NC(=O)[C@@H](N)C(C)(C)C)C(C)(C)C)C(=O)N[C@@H](C)C(=O)O` (H-[Tle][Tle]IA-OH), the RFU stood at 54.5%.

Another series has as its system PC-12. Briefly: Neuroprotective activity against amyloid beta 42-induced toxicity in rat PC-12 cells assessed as cell viability at 2 uM measured after 6 hrs by MTT assay (reference value: 74.05%). Format: functional. The note with it: read-out: Activity.
As for `CC[C@H](C)[C@H](NC(=O)[C@@H](NC(=O)[C@@H](N)C(C)(C)C)C(C)(C)C)C(=O)N[C@@H](C)C(=O)O` (H-[Tle][Tle]IA-OH), the viability at 2 µM is 100%.

The values above are taken from ChEMBL document CHEMBL4732135, “Structural and mechanistic insights into the inhibition of amyloid-β aggregation by Aβ fragment derived synthetic peptides” (Eur J Med Chem, 2021).
